Measurements from publication PMC7712488 (Vaccines, 2020).

System: DQ0602
Assay: DQ0602 peptide competition binding assay (vs Bio-EBV epitope, DELFIA TRF)
Settings: 40 μM competitor vs 1 μM Bio-EBV, 25 nM DQ0602, pH 4.6, 3 days 37 °C, duplicate, <25% strong, 25–50% weak binder; for %DQ6-EBV Binding (PANDEMRIX motif): Suppl Table 1, motif in Pandemrix; for %DQ6-EBV Binding (X179A motif): Suppl Table 1, reference motif of X179A; for %DQ6-EBV Binding (PH1N1 motif): Suppl Table 1, wild type pH1N1 motif
Protocol: The reaction was quenched by adding two volumes of neutralization buffer (100 mM Tris-HCl, pH = 8.6, 150 mM NaCl, 1% BSA, 0.5 Nonidet P-40 (IGEPAL CA-630, Sigma), 0.1% NaN3). Monoclonal anti-DQ (SPV-L3) antibodies (Cat# BNUM0200-50, Biotium, Fremont, CA, USA) (1:400 dilution in 100 mM carbonate-bicarbonate buffer, pH = 9.5) were coated onto a high binding 96-well plate (REF# 9018, Corning), and incubated with neutralized reaction for 1–2 h at room temperature (RT). After washing five times with 300 μL/well of wash buffer (phosphate-buffered saline (PBS), 0.05% Tween-20, pH = 7.4), 100 μL/well of Europium (Eu)-labelled streptavidin (Cat# 1244–360, PerkinElmer, Waltham, MA, USA) (1:1000 dilution in PBS, 1% BSA, pH = 7.4) was added and incubated for 1 h at RT. After washing 5 times again with 300 μL/well of wash buffer, DELFIA® time-resolved fluorescence (TRF) intensity was detected using a Tecan Infinite® M1000 after adding 100 μL/well of enhancement solution (Cat# 1244–105, PerkinElmer). Non-specific binding was removed through extensive wash with wash buffer.
A combination of in-vitro and in-silico methods was adopted to address this question. We synthesized 15 mer peptide stretches overlapping by 4mers using the most abundant viral proteins (HA, NA, NP, M1 & PB2) from reference strains (X179A and wild type pH1N1) as a template. […] In this way, a database of experimentally derived peptide binders from the abundant viral proteins was built. Next, we compared the mutated motifs (Table 3) from the vaccines to the reference motifs already tested for DQ0602 binding.

DPNNMDKAVK[L > M]YRKLKREIT
%DQ6-EBV Binding (PANDEMRIX motif): 71.82%

DPNNMDKAVK[L]YRKLKREIT
%DQ6-EBV Binding (X179A motif): 73.65%

DPNNMDRAVK[L]YKKLKREIT
%DQ6-EBV Binding (PH1N1 motif): 67.01%

LEALMEWLKT[R]PILSPLTKG
%DQ6-EBV Binding (PH1N1 motif): 31.61%

LEVLMEWLKT[R > I]PILSPLTKG
%DQ6-EBV Binding (PANDEMRIX motif): 51.58%

LEVLMEWLKT[R]PILSPLTKG
%DQ6-EBV Binding (X179A motif): 116.06%

LQRRRFVQNA[L > P]NGNGDPNNM
%DQ6-EBV Binding (PANDEMRIX motif): 88.31%

LQRRRFVQNA[L]NGNGDPNNM
%DQ6-EBV Binding (X179A motif): 83.1%
%DQ6-EBV Binding (PH1N1 motif): 83.1%

MASQGTKRSY[E > Q]QMETDGERQ
%DQ6-EBV Binding (PANDEMRIX motif): 78.07%

MASQGTKRSY[E]QMETDGERQ
%DQ6-EBV Binding (X179A motif): 67.56%

MASQGTKRSY[E]QMETGGERQ
%DQ6-EBV Binding (PH1N1 motif): 71.8%

NALNGNGDPN[N > D]MDKAVKLYR
%DQ6-EBV Binding (PANDEMRIX motif): 27.47%

NALNGNGDPN[N]MDKAVKLYR
%DQ6-EBV Binding (X179A motif): 32.79%

NALNGNGDPN[N]MDRAVKLYK
%DQ6-EBV Binding (PH1N1 motif): 21.69%

NNAKEIGNGC[F > Y]EFYHKCDNT
%DQ6-EBV Binding (PANDEMRIX motif): 84.06%

NNAKEIGNGC[F]EFYHKCDNT
%DQ6-EBV Binding (X179A motif): 79.28%
%DQ6-EBV Binding (PH1N1 motif): 79.28%

NTSLPFQNIH[P > Q]ITIGKCPKY
%DQ6-EBV Binding (PANDEMRIX motif): 42.35%

NTSLPFQNIH[P]ITIGKCPKY
%DQ6-EBV Binding (X179A motif): 56.53%
%DQ6-EBV Binding (PH1N1 motif): 56.53%

QGRGVFELSD[E]KAASPIVPS
%DQ6-EBV Binding (PANDEMRIX motif): 14.93%
%DQ6-EBV Binding (X179A motif): 14.93%

QGRGVFELSD[E]KATNPIVPS
%DQ6-EBV Binding (PH1N1 motif): 39.96%

QNALNGNGDP[N > D]NMDKAVKLY
%DQ6-EBV Binding (PANDEMRIX motif): 6.87%

QNALNGNGDP[N]NMDKAVKLY
%DQ6-EBV Binding (X179A motif): 6.01%

QRRRFVQNAL[N > D]GNGDPNNMD
%DQ6-EBV Binding (PANDEMRIX motif): 77.89%

QRRRFVQNAL[N]GNGDPNNMD
%DQ6-EBV Binding (X179A motif): 66.28%
%DQ6-EBV Binding (PH1N1 motif): 66.28%

QVVSLMRPNE[N]PAHKSQLVW
%DQ6-EBV Binding (PH1N1 motif): 31.89%

QVYSLIRPNE[N > D]PAHKSQLVW
%DQ6-EBV Binding (PANDEMRIX motif): 35.94%

QVYSLIRPNE[N]PAHKSQLVW
%DQ6-EBV Binding (X179A motif): 48.19%

RTTIMAAFNG[N > D]TEGRTSDMR
%DQ6-EBV Binding (PANDEMRIX motif): 12.48%

VGKEFNHLEK[R > I]IENLNKKVD
%DQ6-EBV Binding (PANDEMRIX motif): 42.31%

VGKEFNHLEK[R]IENLNKKVD
%DQ6-EBV Binding (X179A motif): 80.71%
%DQ6-EBV Binding (PH1N1 motif): 80.71%
